The numbers were not newly measured in PMC9851200, “Multiparameter phenotypic screening for endogenous TFEB and TFE3 translocation identifies novel chemical series modulating lysosome function” (Autophagy, 2022), which cites them from elsewhere.

Holding throughout (design): method as in original PKIS2 published data
Data set [1] concerns the target kinases (KINOMEscan panel) (Homo sapiens, UniProt P19784). To be noted: CSNK2A2; Published KINOMEscan; ref original PKIS2 published data; cited from earlier work.
Data set [2] addresses T1, kinases (KINOMEscan panel) (Homo sapiens, UniProt Q92772).
T1 sequence (Q92772 1-493): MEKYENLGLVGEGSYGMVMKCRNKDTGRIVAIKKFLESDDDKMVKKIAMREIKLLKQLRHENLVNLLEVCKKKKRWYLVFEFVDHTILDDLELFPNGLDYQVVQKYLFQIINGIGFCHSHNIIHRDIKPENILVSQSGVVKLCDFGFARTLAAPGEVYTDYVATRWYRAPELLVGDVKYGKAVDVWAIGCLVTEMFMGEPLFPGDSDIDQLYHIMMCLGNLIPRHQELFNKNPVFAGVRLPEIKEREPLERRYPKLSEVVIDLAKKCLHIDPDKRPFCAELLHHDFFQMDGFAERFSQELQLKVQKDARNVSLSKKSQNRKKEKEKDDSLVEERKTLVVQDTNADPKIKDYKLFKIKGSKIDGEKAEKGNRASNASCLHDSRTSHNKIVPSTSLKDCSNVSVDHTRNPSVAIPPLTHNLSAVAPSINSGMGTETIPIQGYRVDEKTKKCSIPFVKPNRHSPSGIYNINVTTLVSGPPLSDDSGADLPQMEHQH
The following applies: CDKL2; Published KINOMEscan; ref original PKIS2 published data; cited from earlier work.

The target in data set [3] is kinases (KINOMEscan panel) (Homo sapiens, UniProt P04049). To be noted: RAF1; Published KINOMEscan; ref original PKIS2 published data; cited from earlier work.
For data set [4], the target named is kinases (KINOMEscan panel) (Homo sapiens, UniProt P09769). The following applies: FGR; Published KINOMEscan; ref original PKIS2 published data; cited from earlier work.
The target in data set [5] is kinases (KINOMEscan panel) (Homo sapiens, UniProt Q9Y243). To be noted: kinase AKT3; Published KINOMEscan; ref original PKIS2 published data; cited from earlier work.
Data set [6] deals with kinases (KINOMEscan panel) (Homo sapiens, UniProt Q9UIK4). To be noted: kinase DAPK2; Published KINOMEscan; ref original PKIS2 published data; cited from earlier work.
The target in data set [7] is kinases (KINOMEscan panel) (Homo sapiens, UniProt P49840). The following applies: GSK3A; Published KINOMEscan; ref original PKIS2 published data; cited from earlier work.
Data set [8] has as its target kinases (KINOMEscan panel) (Homo sapiens, UniProt Q06187). The following applies: kinase BTK; Published KINOMEscan; ref original PKIS2 published data; cited from earlier work.
Data set [9] deals with T2, kinases (KINOMEscan panel) (Homo sapiens, UniProt Q86YV6).
T2 sequence (Q86YV6 1-388): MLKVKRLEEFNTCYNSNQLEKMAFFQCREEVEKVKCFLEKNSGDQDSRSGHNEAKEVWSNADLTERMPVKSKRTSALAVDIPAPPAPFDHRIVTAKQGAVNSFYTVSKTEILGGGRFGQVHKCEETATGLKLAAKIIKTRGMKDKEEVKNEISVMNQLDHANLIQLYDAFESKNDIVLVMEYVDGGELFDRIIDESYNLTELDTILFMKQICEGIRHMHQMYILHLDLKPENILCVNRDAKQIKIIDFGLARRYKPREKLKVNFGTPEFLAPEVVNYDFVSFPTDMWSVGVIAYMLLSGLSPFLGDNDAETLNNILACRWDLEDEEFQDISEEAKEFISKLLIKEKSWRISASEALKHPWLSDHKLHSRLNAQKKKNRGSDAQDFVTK
To be noted: kinase MYLK4; Published KINOMEscan; ref original PKIS2 published data; cited from earlier work.

Data set [10] addresses kinases (KINOMEscan panel) (Homo sapiens, UniProt Q5VT25). To be noted: cited from earlier work.
Data set [11] concerns the target T3, kinases (KINOMEscan panel) (Homo sapiens, UniProt Q8IWQ3).
T3 sequence (Q8IWQ3 1-736): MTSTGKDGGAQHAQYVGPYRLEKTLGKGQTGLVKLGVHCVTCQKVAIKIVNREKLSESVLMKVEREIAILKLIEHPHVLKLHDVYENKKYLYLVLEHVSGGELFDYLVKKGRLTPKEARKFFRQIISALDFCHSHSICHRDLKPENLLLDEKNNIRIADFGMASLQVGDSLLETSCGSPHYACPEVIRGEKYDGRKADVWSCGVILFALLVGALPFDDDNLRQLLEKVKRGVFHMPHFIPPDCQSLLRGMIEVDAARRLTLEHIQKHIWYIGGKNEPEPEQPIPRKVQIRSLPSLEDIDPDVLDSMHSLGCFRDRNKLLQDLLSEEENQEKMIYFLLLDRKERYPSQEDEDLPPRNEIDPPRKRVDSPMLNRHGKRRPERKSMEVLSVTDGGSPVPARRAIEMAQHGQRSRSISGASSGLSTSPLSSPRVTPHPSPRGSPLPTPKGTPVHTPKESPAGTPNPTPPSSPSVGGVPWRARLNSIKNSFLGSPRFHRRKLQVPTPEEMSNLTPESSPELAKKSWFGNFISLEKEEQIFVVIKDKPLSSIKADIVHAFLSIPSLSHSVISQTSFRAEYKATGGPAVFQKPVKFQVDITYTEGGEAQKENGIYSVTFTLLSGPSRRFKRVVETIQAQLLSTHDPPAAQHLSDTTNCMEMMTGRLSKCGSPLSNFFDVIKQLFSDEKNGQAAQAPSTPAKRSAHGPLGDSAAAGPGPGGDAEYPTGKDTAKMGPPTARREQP
To be noted: kinase BRSK2; Published KINOMEscan; ref original PKIS2 published data; cited from earlier work.

Chain of kinases (KINOMEscan panel) (Homo sapiens, UniProt Q9Y243) (Q9Y243 whole entry): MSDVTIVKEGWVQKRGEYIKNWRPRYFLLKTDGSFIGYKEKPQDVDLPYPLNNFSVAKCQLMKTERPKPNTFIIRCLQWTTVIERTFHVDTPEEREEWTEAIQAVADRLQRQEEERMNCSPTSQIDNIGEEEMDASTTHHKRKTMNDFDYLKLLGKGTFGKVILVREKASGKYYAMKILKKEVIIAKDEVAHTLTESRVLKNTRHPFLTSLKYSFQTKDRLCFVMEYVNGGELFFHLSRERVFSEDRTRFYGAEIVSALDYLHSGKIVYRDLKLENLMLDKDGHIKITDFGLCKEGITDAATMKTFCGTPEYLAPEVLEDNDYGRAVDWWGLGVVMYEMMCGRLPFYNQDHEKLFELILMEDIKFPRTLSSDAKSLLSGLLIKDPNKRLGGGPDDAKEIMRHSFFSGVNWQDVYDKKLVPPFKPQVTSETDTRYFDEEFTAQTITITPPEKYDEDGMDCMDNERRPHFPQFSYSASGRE
Chain of kinases (KINOMEscan panel) (Homo sapiens, UniProt Q5VT25) (Q5VT25 whole entry): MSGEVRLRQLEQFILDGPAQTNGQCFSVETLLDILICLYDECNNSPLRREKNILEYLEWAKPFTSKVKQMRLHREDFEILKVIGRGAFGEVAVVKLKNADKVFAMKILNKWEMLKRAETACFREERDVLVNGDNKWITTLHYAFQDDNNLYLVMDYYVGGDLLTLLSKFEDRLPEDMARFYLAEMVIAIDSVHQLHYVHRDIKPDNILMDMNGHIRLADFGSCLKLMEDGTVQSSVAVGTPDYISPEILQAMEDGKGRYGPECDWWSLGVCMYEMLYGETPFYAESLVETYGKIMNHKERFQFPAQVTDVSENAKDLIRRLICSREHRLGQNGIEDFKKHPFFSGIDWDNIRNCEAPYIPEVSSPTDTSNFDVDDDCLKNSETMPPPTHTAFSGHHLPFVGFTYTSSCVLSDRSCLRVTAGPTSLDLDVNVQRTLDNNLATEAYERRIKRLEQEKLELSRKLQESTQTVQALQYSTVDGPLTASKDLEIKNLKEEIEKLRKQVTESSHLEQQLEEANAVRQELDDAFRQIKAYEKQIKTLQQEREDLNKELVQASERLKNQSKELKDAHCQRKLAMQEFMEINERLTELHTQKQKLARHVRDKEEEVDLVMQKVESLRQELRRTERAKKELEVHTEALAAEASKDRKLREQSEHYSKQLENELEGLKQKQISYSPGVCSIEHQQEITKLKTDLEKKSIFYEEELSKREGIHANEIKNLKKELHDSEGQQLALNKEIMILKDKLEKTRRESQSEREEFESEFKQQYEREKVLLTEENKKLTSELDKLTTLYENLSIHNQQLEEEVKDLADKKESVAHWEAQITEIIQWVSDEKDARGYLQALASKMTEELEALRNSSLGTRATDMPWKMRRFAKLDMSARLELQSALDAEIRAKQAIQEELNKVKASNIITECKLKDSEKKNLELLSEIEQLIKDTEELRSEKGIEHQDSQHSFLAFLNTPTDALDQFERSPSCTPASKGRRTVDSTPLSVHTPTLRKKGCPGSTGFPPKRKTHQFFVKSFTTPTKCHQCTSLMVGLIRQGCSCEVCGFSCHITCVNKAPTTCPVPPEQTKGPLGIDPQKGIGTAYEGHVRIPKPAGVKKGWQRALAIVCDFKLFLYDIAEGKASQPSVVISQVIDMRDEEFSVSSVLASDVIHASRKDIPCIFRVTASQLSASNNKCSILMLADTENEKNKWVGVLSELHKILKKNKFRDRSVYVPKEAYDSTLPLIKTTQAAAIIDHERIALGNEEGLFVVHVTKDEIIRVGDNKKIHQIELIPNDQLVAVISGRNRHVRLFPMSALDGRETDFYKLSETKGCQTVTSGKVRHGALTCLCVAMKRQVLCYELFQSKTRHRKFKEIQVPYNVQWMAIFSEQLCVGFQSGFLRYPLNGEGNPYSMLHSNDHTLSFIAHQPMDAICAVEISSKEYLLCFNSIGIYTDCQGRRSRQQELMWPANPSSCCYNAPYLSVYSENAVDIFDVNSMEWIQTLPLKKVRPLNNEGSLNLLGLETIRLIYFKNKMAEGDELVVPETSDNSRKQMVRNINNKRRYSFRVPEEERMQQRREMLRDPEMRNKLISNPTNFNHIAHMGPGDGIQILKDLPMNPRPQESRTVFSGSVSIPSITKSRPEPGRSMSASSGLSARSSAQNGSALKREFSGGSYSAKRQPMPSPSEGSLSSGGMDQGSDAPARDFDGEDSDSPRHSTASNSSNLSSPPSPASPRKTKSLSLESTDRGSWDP
Chain of kinases (KINOMEscan panel) (Homo sapiens, UniProt Q06187) (Q06187 whole entry): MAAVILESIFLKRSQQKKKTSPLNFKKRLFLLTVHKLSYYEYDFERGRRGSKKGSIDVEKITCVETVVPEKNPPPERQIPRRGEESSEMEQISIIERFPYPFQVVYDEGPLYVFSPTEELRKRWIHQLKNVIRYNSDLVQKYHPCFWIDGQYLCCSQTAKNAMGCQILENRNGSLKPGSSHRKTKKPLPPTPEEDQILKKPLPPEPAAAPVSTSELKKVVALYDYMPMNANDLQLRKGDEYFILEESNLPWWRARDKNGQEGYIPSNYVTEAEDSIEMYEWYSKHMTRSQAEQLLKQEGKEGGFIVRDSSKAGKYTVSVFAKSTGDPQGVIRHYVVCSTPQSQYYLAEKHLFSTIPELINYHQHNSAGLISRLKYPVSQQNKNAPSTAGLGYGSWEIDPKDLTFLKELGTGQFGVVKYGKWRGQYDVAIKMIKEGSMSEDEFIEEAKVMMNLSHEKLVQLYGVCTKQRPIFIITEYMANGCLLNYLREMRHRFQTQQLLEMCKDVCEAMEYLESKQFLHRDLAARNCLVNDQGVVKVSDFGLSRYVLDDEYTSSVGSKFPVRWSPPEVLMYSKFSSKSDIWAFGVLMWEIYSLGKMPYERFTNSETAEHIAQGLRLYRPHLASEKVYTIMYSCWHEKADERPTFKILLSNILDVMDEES
Chain of kinases (KINOMEscan panel) (Homo sapiens, UniProt P04049) (P04049 whole entry): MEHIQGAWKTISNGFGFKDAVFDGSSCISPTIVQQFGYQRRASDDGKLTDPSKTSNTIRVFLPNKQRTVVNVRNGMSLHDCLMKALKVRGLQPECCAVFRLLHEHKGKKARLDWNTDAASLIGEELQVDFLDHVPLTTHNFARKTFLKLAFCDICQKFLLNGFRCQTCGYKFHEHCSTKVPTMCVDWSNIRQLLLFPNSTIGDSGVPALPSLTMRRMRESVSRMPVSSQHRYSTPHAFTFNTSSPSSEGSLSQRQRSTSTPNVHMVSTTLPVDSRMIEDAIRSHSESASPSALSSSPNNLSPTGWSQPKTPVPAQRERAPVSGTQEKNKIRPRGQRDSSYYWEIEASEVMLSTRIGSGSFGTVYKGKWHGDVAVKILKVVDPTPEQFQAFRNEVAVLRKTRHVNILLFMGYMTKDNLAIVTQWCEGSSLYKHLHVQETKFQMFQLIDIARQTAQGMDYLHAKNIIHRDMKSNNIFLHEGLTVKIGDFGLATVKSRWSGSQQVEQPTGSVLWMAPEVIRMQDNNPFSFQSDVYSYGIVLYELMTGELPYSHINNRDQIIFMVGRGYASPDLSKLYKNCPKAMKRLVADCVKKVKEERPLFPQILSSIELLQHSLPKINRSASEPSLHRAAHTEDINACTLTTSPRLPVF
Chain of kinases (KINOMEscan panel) (Homo sapiens, UniProt P09769) (P09769 whole entry): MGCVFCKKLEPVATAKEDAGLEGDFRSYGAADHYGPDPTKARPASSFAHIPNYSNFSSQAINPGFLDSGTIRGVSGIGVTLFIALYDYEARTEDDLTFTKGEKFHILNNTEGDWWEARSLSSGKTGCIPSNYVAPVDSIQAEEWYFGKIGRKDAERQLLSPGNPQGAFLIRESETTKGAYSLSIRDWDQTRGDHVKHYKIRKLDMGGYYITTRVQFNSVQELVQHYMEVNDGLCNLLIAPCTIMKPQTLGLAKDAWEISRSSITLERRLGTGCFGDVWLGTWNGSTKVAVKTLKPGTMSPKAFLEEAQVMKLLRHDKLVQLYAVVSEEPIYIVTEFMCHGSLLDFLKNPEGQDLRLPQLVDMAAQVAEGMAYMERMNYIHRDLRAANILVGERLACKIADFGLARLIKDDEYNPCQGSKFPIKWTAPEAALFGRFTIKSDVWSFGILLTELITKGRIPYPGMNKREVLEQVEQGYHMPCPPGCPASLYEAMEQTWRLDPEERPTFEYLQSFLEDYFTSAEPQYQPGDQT
Chain of kinases (KINOMEscan panel) (Homo sapiens, UniProt P19784) (P19784 whole entry): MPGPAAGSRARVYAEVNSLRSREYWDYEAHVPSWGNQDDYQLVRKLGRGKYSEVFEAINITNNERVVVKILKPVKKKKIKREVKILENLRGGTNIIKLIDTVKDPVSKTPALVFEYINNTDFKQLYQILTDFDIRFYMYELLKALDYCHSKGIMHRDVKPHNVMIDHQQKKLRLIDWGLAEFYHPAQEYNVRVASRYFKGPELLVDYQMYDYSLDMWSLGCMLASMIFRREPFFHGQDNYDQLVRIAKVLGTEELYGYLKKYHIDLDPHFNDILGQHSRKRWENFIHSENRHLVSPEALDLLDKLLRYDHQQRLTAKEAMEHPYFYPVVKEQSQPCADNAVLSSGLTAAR
Chain of kinases (KINOMEscan panel) (Homo sapiens, UniProt P49840) (P49840 whole entry): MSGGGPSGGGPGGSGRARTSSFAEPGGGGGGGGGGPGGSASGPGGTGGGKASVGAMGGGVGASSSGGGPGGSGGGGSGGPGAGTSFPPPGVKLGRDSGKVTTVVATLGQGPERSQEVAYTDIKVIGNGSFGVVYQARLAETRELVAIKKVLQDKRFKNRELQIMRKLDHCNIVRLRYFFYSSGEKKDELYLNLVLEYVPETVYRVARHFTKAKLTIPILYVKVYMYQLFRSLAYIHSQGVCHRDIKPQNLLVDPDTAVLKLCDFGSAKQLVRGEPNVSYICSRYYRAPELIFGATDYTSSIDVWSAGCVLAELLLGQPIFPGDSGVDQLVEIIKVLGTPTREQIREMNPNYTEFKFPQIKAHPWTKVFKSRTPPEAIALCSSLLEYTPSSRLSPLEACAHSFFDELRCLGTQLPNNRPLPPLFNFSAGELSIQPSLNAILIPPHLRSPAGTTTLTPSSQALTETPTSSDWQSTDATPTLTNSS

As to `Cc1cccc(-c2nc(Nc3ccncc3)c3ccccc3n2)n1` [NK215], the “KINOMEscan CSNK2A2” value in data set [1] was 0. Besides, the “KINOMEscan CDKL2” value in data set [2] is on record as 10. Also, the “KINOMEscan RAF1” value in [3] was 39. For the same molecule, the “KINOMEscan FGR” value in data set [4] is given as 31. In data set [5], the “KINOMEscan AKT3” value is listed as 0. In addition, in data set [6], the “KINOMEscan DAPK2” value is listed as 7. The “KINOMEscan GSK3A” value in data set [7] was 4. In addition, the “KINOMEscan BTK” value in data set [8] was 0. For the same molecule, the “KINOMEscan MYLK4” value in data set [9] was 7. Further, in data set [10], the “KINOMEscan CDC42BPA/MRCKA” value was 47. In addition, in data set [11], the “KINOMEscan BRSK2” value is 11.
